For series [1], the system named is hepatocellular carcinoma HepG2 cell line. As to the kind of experiment: MTT cytotoxicity assay, HepG2. The class given is cell-based, human. Conditions: Homo sapiens, HepG2, 24 h, 24 h treatment, mean ± SE. On the procedure:
All the newly synthesized analogs were evaluated for their in vitro cytotoxicity against the hepatocellular carcinoma HepG2 cell line. Podo was utilized as a reference control in the current study. […] The N-phenyl triazinone derivative 9 was further investigated for its cytotoxic effects against normal liver cell line HL-7702.
MTT colorimetric assay was carried out to investigate the impact of the newly synthesized compounds 2–11 on hepatocellular carcinoma (HepG2) and normal liver cell line (HL-7702) cell lines. See Section 3.3.1 in Supplementary Material.
(§1) 3.3.1. Cytotoxic activity evaluation
To measure the cytotoxic activity of the synthesized derivatives 2a-11 in hepatocel-lular carcinoma (HepG2) cell line (ATCC Cat No. HB-8065) as well as normal human liver cell line HL-7702 (ATCC Cat. No. 77402), cell viability assay was assessed using MTT assay method. Cells at density of 1 x 104 were seeded in a 96-well plate at 37 °C for 24 h under 5% CO2. After incubation, the cells were treated with different concentrations of the test compounds 2a-11 and incubated for 24 h, then 20 μl of MTT solution at 5 mg/mL was applied and incubated for 4 h at 37 °C. Dimethyl sulphoxide (DMSO) in volume of 100 µl was added to each well to dissolve the purple formazan that had formed. The color inten-sity of the formazan product, which represents the growth condition of the cells, is quan-tified by using an ELISA plate reader (EXL 800, USA) at 570 nm absorbance. The experi-mental conditions were carried out with at least three replicates, and the experiments were repeated at least three times.
3.3.2. Tubulin inhibitions Assay
(§2) Compounds 9, 10 and 11 were evaluated for their tubulin inhibitory activity levels according to the manufacturer’s instructions using # abcam Human Beta-tubulin simplestep […]
3.3.3. Cell cycle analysis of compound 9
Cell cycle analysis in HepG2 cells was investigated using fluorescent Annexin V-FITC/ PI detection kit (BioVision EZCellTM Cell Cycle Analysis Kit Catalog #K920) by flow cytometry assay. HepG2 cells at a density of 2 × 10^5 per well were harvested and washed twice in PBS. After that, the cells were incubated at 37 °C and 5% CO2. […] Afterward, medium was stained with DNA flu-orochrome PI for 15 min at 37 °C. The samples were immediately analyzed using Facs Calibur flow cytometer (Becton and Dickinson, Heidelberg, Germany).
3.3.4. Apoptosis assay for compound 9
Apoptosis in HepG2 cells was investigated using fluorescent Annexin V-FITC/ PI de-tection kit (BioVision Annexin V-FITC Apoptosis Detection Kit, Catalog #: K101) by flow cy-tometry assay. HepG2 cells at a density of 2 × 10^5 per well were treated with compound 9 at its IC50 (μM) for 48 h, then the cells were harvested and stained with Annexin V-FITC/ PI dye for 15 min in the dark at 37 °C. The samples were immediately analyzed using FACS Calibur flow cytometer (Becton and Dickinson, Heidelberg, Germany).
3.3.5. Measurement of mitochondrial membrane potential (MMP) for compound 9 MMP was measured by FACS analysis using abcam ab113852TMRE Mitochondrial Membrane Potential Assay Kit with DiOC2(3) staining using MitoProbe™ DiOC2(3) Assay Kit for Flow Cytometry (M34150). After treatment with compound 9 at its IC50 concentra-tion, cells were stained with DiOC2(3) dye for 30 min in the incubator, then harvested and washed with PBS. DiOC2(3)-stained cells were represented with Annexin binding buffer and incubated at 37 °C for 15 min. The samples were immediately analyzed using cell […]
3.3.6. Effect on p53, Bax and Bcl-2 p53, Bax and Bcl2 enzyme activities in HepG2 cells were detected in the presence of com-pound 9 at its IC50 concentration (μM). The levels of the tumor suppressor gene p53, apoptotic markers Bax as well as the anti-apoptotic marker Bcl-2 were assessed using p53 ELISA kit, Human Bax ELISA kit and Bcl-2 Elisa kit. […]

A further series has as its system HepG2 cells. As to the kind of experiment: Mitochondrial membrane potential by flow cytometry. Conditions: HepG2, 1.38 μM (IC50), 48 h. The class given is cell-based, human. How it is done: Mitochondrial Membrane Potential (MMP) plays a vital role in the initiation of the apoptosis process. Loss of MMP is characteristic of an early stage of apoptosis.
MMP was measured by flow cytometry analysis in HepG2 cells according to the manufacturer’s directions. See Section 3.3.5 in Supplementary Material.
Figure 5 Compound 9 promotes MMP dissipation in HepG2 cells. (A) HepG2 cells were treated with 1.38 μM of compound 9 for 48 h. MMP was quantized using image-based flow cytometry. (B) The quantification of MMP in HepG2 cells after treatment with compound 9 at its IC50 concentration (μM). […]
(§3) To measure the cytotoxic activity of the synthesized derivatives 2a-11 in hepatocel-lular carcinoma (HepG2) cell line (ATCC Cat No. HB-8065) as well as normal human liver cell line HL-7702 (ATCC Cat. No. 77402), cell viability assay was assessed using MTT assay method. […] The color inten-sity of the formazan product, which represents the growth condition of the cells, is quan-tified by using an ELISA plate reader (EXL 800, USA) at 570 nm absorbance. […]
as §2
On the technique in general: In flow cytometry, cells or beads pass a laser one at a time.

A further series deals with p53. The series is described as follows: ELISA quantification of p53 level. It counts as cell-based, human. Conditions: HepG2, 1.38 μM (IC50), 48 h. How it is done:
(§4) Compound 9 was screened for its ability to activate p53 and Bax as well as downregulate the level of Bcl-2 to investigate the mechanistic apoptotic pathway that catalyzed the apoptosis process. HepG2 cells were treated with compound 9 at a concentration equal to its IC50 in μM, and the level of p53, Bax, and Bcl-2 was quantized using ELISA analysis. The results obtained for compound 9 show the increase in the level of p53 and Bax by 8.91- and 4.50-fold, respectively, compared with the negative control samples.
(§5) Apoptotic markers (p53, Bax and Bcl-2) were measured in HepG2 cells using ELISA analysis according to the manufacturer’s directions. See Section 3.3.6 in Supplementary Material.
(§6) Figure 6 (A) The quantification of p53. (B) The quantification of Bax. (C) The quantification of Bcl-2. HepG2 cells were treated with 1.38 μM of compound 9 for 48 h and apoptotic markers were determined by ELISA assay.
as §1, §3
A general note: An ELISA detects its analyte on a solid surface through an enzyme-linked reagent.

For a further series, the system named is Bax. The series is described as follows: ELISA quantification of Bax level. The class given is cell-based, human. Conditions: HepG2, 1.38 μM (IC50), 48 h. On the procedure: as §4, §5, §6, §1, §3
In another series the test system is Bcl-2. The series is described as follows: ELISA quantification of Bcl-2 level. It counts as cell-based, human. The following applies: HepG2, 1.38 μM (IC50), 48 h. On the procedure:
as §4, §5, §6, §1, §3

The term IC50 denotes the point on the concentration scale where inhibition reaches its midpoint. High values mean weaker potency in that assay, low ones greater potency in that assay. As a reminder, the melting point is the temperature, or range, at which the solid turns liquid. In turn, `COc1ccc(C2=N/C(=C\c3cc(OC)c(OC)c(OC)c3)C(=O)NN2c2ccccc2)cc1OC` [Compound 9, (Z)-3-(3,4-Dimethoxyphenyl)-2-Phenyl-5-(3,4,5-Trimethoxybenzylidene)-1,2-Dihydro-1,2,4-Triazin-6(5H)-one] gave a melting point of 248 to 250 °C. In series [1], this molecule registered an IC50 of 1.38 ± 0.15 µM. In addition, the “decrease in level of MMP compared with negative HepG2 cells” value with HepG2 cells turned out to be 3.12 fold. Besides, the “increase in level of p53 compared with negative control” value in the series with p53 turned out to be 8.91 fold. In the series with Bax, the “increase in level of Bax compared with negative control” value is 4.50 fold. In addition, in the series with Bcl-2, the “decrease in level of Bcl-2 compared with negative control” value is reported as 5.58 fold.

The record behind these values is article PMC9322052, “Synthesis and Biological Activity Screening of Newly Synthesized Trimethoxyphenyl-Based Analogues as Potential Anticancer Agents” (Molecules, 2022).
